Reference: the NIST ThermoML archive (doi:10.1021/je400783h)

Key:
[1] = relative permittivity at various frequencies (dimensionless); details: 101 kPa, Liquid, Frequency=2 MHz, capacitive measurement method
[2] = refractive index (Na D-line) (dimensionless); details: 101.33 kPa, Liquid, Standard Abbe refractometry

OCC1CCCO1 (stereo unspecified) [2-tetrahydrofurylmethanol]
Details	refractive index, [2]	relative permittivity, [1]
278.15 K	–	15.2
280.65 K	–	15
283.15 K	1.45646	15
285.65 K	1.45549	14.9
288.15 K	1.45452	14.8
290.65 K	1.45356	14.7
293.15 K	1.45259	14.6
295.65 K	1.45162	14.5
298.15 K	1.45063	14.4
300.65 K	1.44965	14.4
303.15 K	1.44867	14.3
305.65 K	1.44769	14.2
308.15 K	1.44671	14.1
310.65 K	1.44572	14
313.15 K	1.44473	13.9
315.65 K	1.44375	13.8
318.15 K	1.44274	13.8
320.65 K	1.44176	13.6
323.15 K	1.44072	13.5
325.65 K	1.4397	13.5
328.15 K	1.43871	13.4
330.65 K	1.43772	13.3
333.15 K	1.43668	13.2
335.65 K	1.43567	13.1
338.15 K	1.43466	13

Cc1ccc(C=O)o1 [5-methylfurfural]
Details	refractive index, [2]	relative permittivity, [1]
278.15 K	–	45.2
280.65 K	–	44.5
283.15 K	1.5364	43.7
285.65 K	1.53529	43
288.15 K	1.53393	42.3
290.65 K	1.53269	41.6
293.15 K	1.53144	40.9
295.65 K	1.53019	40.2
298.15 K	1.5289	39.4
300.65 K	1.52765	38.7
303.15 K	1.5264	38
305.65 K	1.52513	37.2
308.15 K	1.52385	36.4
310.65 K	1.52257	35.8
313.15 K	1.5213	35.1
315.65 K	1.52	34.4
318.15 K	1.51872	33.7
320.65 K	1.51742	33.6
323.15 K	1.51615	32.4
325.65 K	1.51486	31.7
328.15 K	1.51357	31.1
330.65 K	1.51229	30.4
333.15 K	1.511	29.8
335.65 K	1.50972	29.1
338.15 K	1.50842	28.4
